Laboratory results reported in ChEMBL document CHEMBL4402613, “Targeting ALK2: An Open Science Approach to Developing Therapeutics for the Treatment of Diffuse Intrinsic Pontine Glioma” (J Med Chem, 2020).
pIC50: −log10 of the molar value. Calls of active or inactive are those of the source. No cut-off for these calls is given here.

Experiments:
Activin receptor type-1 [1] = target: T1, Activin receptor type-1 (Homo sapiens, UniProt Q04771); assay: Inhibition of C-terminal nanoluciferase-fused ALK2 (unknown origin) expressed in HEK293 cells incubated for 2 hrs followed by NanoBRET NanoGlo Substrate addition by NanoBRET assay; type: cell-based
T1 sequence (Q04771 whole entry): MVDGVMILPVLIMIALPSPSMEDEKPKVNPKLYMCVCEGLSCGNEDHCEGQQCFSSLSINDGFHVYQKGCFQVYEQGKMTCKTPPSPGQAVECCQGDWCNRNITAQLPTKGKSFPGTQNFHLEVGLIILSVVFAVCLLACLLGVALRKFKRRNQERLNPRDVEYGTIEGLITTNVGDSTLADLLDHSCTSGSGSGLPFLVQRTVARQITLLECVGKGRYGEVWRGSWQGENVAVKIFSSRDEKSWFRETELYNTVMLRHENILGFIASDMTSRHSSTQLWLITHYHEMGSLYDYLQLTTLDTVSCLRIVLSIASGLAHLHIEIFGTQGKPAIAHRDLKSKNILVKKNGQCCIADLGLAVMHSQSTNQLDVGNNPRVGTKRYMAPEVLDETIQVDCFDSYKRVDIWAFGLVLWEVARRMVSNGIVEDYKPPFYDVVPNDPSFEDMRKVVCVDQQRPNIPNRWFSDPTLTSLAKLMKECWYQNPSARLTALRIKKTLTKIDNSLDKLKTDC

Activin receptor type-1 [2] = target: Activin receptor type-1 (Homo sapiens, UniProt Q04771, G328V); assay: Inhibition of ALK2 G328V mutant (unknown origin)
Activin receptor type-1 [3] = target: Activin receptor type-1 (Homo sapiens, UniProt Q04771, R206H); assay: Inhibition of human ALK2 R206H mutant using casein as substrate in presence of 10 uM [gamma33P] ATP by radioactive assay
Activin receptor type-1 [4] = target: Activin receptor type-1 (Homo sapiens, UniProt Q04771, R258G); assay: Inhibition of ALK2 R258G mutant (unknown origin)
[5] = mouse, in vivo, po, 10 mg/kg, 24 h
[6] = mouse, in vivo, po, 10 mg/kg, 24 h; remark: listed apart in the source
[7] = mouse, in vivo, po, 10 mg/kg, 24 h; remark: listed apart in the source
Description: Half life in CB17 SCID mouse at 10 mg/kg, po measured up to 24 hrs by LC-MS/MS analysis

[8] = mouse, microsomes, 1 h, 1 µM
Description: Microsomal stability in CD-1 mouse liver microsomes assessed as parent compound remaining at 1 uM and 37 degree C measured after 60 mins in presence of NADP+ by LC-QTOF/MS analysis

[9] = human, microsomes, 1 h, 1 µM
Description: Microsomal stability in human liver microsomes assessed as parent compound remaining at 1 uM and 37 degree C measured after 60 mins in presence of NADP+ by LC-QTOF/MS analysis

in vitro [10] = conditions: human, Caco-2
Description: Apparent permeability across apical to basolateral membrane in human Caco2 cells at 5 uM incubated for 120 mins in orbital shaker by LC-QTOF/MS analysis

in vitro [11] = conditions: human, Caco-2; remark: listed apart in the source
Description: Apparent permeability across basolateral to apical membrane in human Caco2 cells at 5 uM incubated for 120 mins in orbital shaker by LC-QTOF/MS analysis

TGF-beta receptor type-1 [12] = target: T2, TGF-beta receptor type-1 (Homo sapiens, UniProt P36897); type: single protein
T2 sequence (P36897 whole entry): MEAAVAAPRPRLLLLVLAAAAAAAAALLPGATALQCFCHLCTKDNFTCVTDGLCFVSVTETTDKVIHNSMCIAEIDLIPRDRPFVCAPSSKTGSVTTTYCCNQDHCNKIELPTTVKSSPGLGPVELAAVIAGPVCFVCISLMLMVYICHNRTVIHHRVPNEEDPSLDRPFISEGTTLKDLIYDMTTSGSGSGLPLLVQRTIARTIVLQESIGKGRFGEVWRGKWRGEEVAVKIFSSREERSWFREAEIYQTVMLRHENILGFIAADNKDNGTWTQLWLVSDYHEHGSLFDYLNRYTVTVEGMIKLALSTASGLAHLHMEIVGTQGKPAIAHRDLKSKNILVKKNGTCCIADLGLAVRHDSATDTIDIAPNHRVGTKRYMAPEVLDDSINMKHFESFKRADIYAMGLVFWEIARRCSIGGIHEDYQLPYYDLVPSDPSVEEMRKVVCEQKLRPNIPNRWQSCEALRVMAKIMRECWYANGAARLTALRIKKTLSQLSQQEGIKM
Description: Inhibition of human ALK5 using casein as substrate in presence of 10 uM [gamma33P] ATP by radioactive assay

TGF-beta receptor type-1 [13] = target: T2, TGF-beta receptor type-1; type: cell-based, HEK293
Description: Inhibition of ALK5 (unknown origin) expressed in HEK293 cells transfected with CAGA-luciferase and Renilla luciferase reporter measured after 24 hrs by dual luciferase reporter assay

Activin receptor type-1 [14] = target: T1, Activin receptor type-1
Description: Inhibition of human ALK2 using casein as substrate in presence of 10 uM [gamma33P] ATP by radioactive assay

[15] = target: Activin receptor type-1-like (Homo sapiens) (UniProt P37023); assay: Inhibition of ALK1 (unknown origin) at 1 uM
[16] = target: Bone morphogenetic protein receptor type-1A (Homo sapiens) (UniProt P36894); assay: Inhibition of ALK3 (unknown origin) at 1 uM
[17] = target: Bone morphogenetic protein receptor type-1B (Homo sapiens) (UniProt O00238); assay: Inhibition of ALK6 (unknown origin) at 1 uM
[18] = target: T3, Serine/threonine-protein kinase A-Raf (Homo sapiens) (UniProt P10398); assay: Inhibition of ARAF (unknown origin) at 1 uM
T3 sequence (whole entry): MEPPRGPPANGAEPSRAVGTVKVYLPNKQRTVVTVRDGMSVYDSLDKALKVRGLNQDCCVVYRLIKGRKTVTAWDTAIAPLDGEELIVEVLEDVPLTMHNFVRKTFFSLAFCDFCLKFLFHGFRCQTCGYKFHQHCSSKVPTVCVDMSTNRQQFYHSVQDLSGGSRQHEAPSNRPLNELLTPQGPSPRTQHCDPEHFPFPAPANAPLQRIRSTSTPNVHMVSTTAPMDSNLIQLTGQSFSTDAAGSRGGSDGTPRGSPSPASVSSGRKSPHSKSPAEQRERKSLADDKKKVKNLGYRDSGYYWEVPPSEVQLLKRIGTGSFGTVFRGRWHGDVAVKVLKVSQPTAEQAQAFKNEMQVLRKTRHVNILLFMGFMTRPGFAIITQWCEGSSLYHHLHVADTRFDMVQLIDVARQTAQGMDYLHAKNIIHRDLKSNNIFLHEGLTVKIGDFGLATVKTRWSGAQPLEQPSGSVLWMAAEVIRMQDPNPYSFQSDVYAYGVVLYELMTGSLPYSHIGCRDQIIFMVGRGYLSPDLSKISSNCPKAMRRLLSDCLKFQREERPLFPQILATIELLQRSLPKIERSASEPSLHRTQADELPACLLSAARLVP

[19] = target: Mitogen-activated protein kinase kinase kinase kinase 4 (Homo sapiens) (UniProt O95819); assay: Inhibition of MAP4K4 (unknown origin) at 1 uM
[20] = target: Misshapen-like kinase 1 (Homo sapiens) (UniProt Q8N4C8); assay: Inhibition of MINK (unknown origin) at 1 uM
[21] = target: T4, Non-receptor tyrosine-protein kinase TNK1 (Homo sapiens) (UniProt Q13470); assay: Inhibition of TNK1 (unknown origin) at 1 uM
T4 sequence (whole entry): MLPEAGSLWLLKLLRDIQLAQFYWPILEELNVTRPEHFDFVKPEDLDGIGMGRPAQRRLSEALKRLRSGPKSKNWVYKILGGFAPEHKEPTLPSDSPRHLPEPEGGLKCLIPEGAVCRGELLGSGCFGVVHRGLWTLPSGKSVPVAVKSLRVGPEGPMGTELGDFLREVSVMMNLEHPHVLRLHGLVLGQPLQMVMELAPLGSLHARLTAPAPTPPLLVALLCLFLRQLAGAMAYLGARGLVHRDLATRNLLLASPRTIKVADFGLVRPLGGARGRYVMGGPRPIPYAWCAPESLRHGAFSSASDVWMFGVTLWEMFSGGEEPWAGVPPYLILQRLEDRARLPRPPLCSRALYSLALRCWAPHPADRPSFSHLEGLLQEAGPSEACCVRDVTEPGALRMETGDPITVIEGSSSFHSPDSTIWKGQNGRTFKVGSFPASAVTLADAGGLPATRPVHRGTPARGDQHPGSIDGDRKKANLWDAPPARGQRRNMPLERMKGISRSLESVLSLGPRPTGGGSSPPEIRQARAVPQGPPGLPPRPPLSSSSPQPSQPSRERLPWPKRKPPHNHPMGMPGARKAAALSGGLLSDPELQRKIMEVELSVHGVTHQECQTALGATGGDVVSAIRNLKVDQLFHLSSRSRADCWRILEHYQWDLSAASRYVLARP

[22] = target: Voltage-gated inwardly rectifying potassium channel KCNH2 (Homo sapiens, UniProt Q12809)
Description: Inhibition of human ERG expressed in HEK293 cells measured after 5 mins by whole cell patch clamp method

Sequence of Activin receptor type-1 (Homo sapiens, UniProt Q04771, R206H) (Q04771 21-509 R206H limits assumed): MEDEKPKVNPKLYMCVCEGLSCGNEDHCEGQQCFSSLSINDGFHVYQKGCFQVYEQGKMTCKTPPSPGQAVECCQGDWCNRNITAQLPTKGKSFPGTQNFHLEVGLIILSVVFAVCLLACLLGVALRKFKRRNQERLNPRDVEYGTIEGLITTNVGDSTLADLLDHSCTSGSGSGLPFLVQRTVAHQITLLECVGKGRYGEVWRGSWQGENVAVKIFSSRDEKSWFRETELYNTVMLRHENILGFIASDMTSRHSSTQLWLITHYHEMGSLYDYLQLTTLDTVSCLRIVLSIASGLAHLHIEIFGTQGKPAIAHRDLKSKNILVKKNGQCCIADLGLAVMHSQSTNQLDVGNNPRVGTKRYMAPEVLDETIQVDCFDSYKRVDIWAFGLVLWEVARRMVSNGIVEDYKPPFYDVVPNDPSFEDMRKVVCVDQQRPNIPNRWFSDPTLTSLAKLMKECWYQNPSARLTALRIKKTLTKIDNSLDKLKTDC
Sequence of Activin receptor type-1 (Homo sapiens, UniProt Q04771, R258G) (Q04771 21-509 R258G limits assumed): as the sequence (Q04771 21-509 R206H limits assumed) above, with H186R, R238G counted along it
Sequence of Activin receptor type-1 (Homo sapiens, UniProt Q04771, G328V) (Q04771 21-509 G328V limits assumed): as the sequence (Q04771 21-509 R206H limits assumed) above, with H186R, G308V counted along it
Sequence of Misshapen-like kinase 1 (Homo sapiens) (Q8N4C8 whole entry, looked up): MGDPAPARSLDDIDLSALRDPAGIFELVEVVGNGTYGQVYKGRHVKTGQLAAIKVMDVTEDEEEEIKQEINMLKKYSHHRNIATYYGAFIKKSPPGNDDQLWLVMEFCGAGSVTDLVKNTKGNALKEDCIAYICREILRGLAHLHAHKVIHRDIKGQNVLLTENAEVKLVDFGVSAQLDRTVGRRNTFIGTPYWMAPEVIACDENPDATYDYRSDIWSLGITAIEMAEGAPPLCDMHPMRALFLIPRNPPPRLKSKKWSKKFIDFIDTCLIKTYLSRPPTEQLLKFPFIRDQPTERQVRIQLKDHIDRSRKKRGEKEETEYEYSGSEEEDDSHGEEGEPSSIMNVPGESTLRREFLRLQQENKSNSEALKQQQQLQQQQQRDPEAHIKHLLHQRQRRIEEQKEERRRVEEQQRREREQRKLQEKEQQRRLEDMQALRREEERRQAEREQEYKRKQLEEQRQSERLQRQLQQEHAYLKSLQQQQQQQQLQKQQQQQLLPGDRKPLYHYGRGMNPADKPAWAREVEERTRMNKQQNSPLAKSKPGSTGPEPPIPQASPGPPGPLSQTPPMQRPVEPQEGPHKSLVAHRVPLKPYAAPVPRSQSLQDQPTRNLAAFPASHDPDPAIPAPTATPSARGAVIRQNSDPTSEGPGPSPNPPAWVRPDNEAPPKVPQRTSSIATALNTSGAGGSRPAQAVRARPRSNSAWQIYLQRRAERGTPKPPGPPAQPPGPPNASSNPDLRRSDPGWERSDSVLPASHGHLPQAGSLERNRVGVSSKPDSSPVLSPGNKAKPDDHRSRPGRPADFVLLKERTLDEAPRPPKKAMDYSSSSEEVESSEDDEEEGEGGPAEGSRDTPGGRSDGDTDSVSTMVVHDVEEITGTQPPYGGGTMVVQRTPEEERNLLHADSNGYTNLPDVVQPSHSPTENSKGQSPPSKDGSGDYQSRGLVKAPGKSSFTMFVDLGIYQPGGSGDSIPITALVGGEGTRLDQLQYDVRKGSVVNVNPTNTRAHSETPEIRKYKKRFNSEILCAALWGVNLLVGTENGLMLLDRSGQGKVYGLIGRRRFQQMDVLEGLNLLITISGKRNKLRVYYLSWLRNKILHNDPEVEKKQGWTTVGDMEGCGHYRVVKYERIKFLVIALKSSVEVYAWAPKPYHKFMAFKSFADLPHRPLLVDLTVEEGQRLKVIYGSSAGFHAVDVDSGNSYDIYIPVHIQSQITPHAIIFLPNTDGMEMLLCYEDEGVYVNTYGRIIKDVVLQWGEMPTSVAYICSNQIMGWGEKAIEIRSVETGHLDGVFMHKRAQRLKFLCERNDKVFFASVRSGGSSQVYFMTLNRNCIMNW
Sequence of Bone morphogenetic protein receptor type-1B (Homo sapiens) (O00238 whole entry): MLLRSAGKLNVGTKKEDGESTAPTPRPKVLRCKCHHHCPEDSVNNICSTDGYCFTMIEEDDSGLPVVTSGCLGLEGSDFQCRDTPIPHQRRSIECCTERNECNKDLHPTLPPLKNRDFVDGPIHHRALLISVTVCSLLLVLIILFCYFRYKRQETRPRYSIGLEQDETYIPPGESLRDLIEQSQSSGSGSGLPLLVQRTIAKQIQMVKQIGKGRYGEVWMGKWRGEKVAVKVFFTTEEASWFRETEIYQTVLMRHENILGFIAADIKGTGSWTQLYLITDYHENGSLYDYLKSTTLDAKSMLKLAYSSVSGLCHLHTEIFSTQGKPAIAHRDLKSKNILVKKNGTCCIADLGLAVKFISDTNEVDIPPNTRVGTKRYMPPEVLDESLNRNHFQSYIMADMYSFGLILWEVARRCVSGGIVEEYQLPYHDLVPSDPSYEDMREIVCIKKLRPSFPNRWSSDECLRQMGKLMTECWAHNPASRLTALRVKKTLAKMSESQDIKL
Sequence of Mitogen-activated protein kinase kinase kinase kinase 4 (Homo sapiens) (O95819 2-1239 limits assumed): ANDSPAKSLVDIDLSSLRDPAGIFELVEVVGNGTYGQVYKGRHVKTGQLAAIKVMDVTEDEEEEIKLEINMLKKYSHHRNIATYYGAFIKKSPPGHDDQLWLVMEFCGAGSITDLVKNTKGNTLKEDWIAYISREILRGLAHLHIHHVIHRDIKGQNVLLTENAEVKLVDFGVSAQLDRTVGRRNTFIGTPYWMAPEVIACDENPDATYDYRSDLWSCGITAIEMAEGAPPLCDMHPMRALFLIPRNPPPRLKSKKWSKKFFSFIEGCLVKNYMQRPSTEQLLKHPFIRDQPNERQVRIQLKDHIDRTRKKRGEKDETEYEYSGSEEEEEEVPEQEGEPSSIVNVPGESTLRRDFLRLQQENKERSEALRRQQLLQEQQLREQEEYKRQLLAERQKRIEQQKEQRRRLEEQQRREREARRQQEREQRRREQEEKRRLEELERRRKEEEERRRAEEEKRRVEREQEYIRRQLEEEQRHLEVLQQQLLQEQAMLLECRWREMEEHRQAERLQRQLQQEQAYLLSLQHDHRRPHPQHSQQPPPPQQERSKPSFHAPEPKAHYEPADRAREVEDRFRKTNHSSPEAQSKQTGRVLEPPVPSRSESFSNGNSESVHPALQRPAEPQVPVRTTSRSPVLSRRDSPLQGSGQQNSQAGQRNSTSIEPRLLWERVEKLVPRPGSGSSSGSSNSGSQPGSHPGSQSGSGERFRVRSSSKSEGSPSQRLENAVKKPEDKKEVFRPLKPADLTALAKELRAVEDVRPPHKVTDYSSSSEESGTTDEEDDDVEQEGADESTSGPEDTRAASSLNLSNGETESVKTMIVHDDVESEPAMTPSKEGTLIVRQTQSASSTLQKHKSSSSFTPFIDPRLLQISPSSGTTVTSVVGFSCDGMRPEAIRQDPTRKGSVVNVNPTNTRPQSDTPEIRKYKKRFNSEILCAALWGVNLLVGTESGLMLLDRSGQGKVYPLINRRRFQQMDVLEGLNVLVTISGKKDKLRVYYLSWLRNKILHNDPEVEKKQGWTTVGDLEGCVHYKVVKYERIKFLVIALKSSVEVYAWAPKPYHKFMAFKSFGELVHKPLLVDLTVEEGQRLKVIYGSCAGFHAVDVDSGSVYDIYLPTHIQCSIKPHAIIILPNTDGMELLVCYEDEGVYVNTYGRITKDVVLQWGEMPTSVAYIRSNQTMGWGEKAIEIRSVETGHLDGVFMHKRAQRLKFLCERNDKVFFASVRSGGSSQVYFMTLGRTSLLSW
Sequence of Bone morphogenetic protein receptor type-1A (Homo sapiens) (P36894 whole entry): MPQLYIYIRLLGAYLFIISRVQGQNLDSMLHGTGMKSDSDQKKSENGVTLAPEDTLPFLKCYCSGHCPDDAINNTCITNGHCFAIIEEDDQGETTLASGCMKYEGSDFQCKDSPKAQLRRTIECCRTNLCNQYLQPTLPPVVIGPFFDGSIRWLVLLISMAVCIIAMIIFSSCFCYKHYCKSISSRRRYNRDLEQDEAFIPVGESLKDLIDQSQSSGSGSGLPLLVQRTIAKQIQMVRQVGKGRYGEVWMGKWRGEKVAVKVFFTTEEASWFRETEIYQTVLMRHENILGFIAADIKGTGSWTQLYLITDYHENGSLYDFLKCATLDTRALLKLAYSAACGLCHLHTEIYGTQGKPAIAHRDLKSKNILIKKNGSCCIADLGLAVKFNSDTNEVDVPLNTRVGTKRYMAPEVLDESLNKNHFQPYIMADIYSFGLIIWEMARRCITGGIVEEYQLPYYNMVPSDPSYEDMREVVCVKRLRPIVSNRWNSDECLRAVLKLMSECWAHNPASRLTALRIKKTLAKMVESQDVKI
Sequence of Activin receptor type-1-like (Homo sapiens) (P37023 whole entry): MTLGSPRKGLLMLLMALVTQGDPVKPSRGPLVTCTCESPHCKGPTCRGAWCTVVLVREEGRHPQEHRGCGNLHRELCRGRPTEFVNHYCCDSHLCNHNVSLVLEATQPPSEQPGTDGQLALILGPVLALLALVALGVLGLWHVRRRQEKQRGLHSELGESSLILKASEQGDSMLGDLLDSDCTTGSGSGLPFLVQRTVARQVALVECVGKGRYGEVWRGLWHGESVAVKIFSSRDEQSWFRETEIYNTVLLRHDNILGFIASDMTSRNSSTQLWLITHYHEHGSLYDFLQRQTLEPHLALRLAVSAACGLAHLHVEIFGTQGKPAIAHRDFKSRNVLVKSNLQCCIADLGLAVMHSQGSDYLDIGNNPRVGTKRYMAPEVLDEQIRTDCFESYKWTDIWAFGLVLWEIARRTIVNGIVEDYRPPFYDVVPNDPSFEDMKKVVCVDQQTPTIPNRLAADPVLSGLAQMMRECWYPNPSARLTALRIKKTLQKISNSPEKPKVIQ

SMILES	pIC50 (Activin receptor type-1 [1])	pIC50 (TGF-beta receptor type-1 [12])	pIC50 (TGF-beta receptor type-1 [13])	pIC50 (Activin receptor type-1 [14])	other results
COc1cc(-c2cncc(-c3ccc(N4CCNCC4)cc3)c2C)cc(F)c1C(N)=O	7.09	–	–	–	pIC50 (Activin receptor type-1 [2]): 8.40; pIC50 (Activin receptor type-1 [3]): 8.10; pIC50 (Activin receptor type-1 [4]): 8.15; Cmax [5]: 97 ng/mL; AUC [6]: 296 ng·h/mL; t1/2 [7]: 1.31 h; Stability [8]: > 85%; Stability [9]: > 85%; Papp A→B at 2 h, 5 µM (in vitro [10]): 0.3 ×10⁻⁶ cm/s; Papp B→A at 2 h, 5 µM (in vitro [11]): 10.7 ×10⁻⁶ cm/s
COc1cc(-c2cncc(-c3ccc(N4CCN(C)CC4)cc3)c2C)cc(OC)c1C(N)=O	7.72	7.12	6.60	> 8.52	pIC50 (Activin receptor type-1 [2]): > 8.70; pIC50 (Activin receptor type-1 [3]): 8.40; pIC50 (Activin receptor type-1 [4]): > 8.70
COc1cc(-c2cncc(-c3ccc(N4CCNCC4)cc3)c2C)sc1C(N)=O	5.47	< 5.30	< 5.30	6.12	–
CNC(=O)c1ccc(-c2cncc(-c3ccc(N4CCNCC4)cc3)c2C)cc1OC	< 5.30	< 5.30	< 5.30	< 6.00	–
Cc1c(-c2ccc(N3CCNCC3)cc2)cncc1-c1ccc2c(c1)CNC2=O	5.63	< 5.30	5.32	–	pIC50 (Activin receptor type-1 [2]): 6.77; pIC50 (Activin receptor type-1 [3]): 6.65; pIC50 (Activin receptor type-1 [4]): 6.44
COCc1cc(-c2cncc(-c3ccc(N4CCNCC4)cc3)c2C)ccc1C(N)=O	5.42	< 5.30	< 5.30	6.16	–
COc1cc(C(N)=O)cc(-c2cncc(-c3ccc(N4CCNCC4)cc3)c2C)c1	6.23	< 5.30	< 5.30	6.99	–
COc1cc(-c2cncc(-c3ccc(N4CCN(C(C)C)CC4)cc3)c2C)cc(F)c1C(N)=O	–	–	–	–	inhibition [15]: Active; inhibition [16]: Active; inhibition [17]: Active; inhibition [18]: Active; inhibition [19]: Active; inhibition [20]: Active; inhibition [21]: Active
COc1cc(-c2cncc(-c3ccc(N4CCN(C(C)C)CC4)cc3)c2C)cc(OC)c1C(N)=O	7.74	7.18	6.56	8.30	–
COc1cc(-c2cncc(-c3ccc(N4CCNCC4)cc3)c2C)ccc1C(N)=O	7.26	–	–	–	pIC50 (Activin receptor type-1 [2]): 8.30; pIC50 (Activin receptor type-1 [3]): 8.05; pIC50 (Activin receptor type-1 [4]): 8.05
COc1cc(-c2cncc(-c3ccc(N4CCNCC4)cc3)c2C)cc(Cl)c1C(N)=O	7.03	5.68	< 5.30	–	pIC50 (Activin receptor type-1 [2]): > 8.70; pIC50 (Activin receptor type-1 [3]): 8.30; pIC50 (Activin receptor type-1 [4]): 8.40
COc1c(C(N)=O)csc1-c1cncc(-c2ccc(N3CCNCC3)cc2)c1C	< 5.30	< 5.30	< 5.30	< 6.00	–
COc1cc(-c2cncc(-c3ccc(N4C[C@@H](C)N(C)[C@@H](C)C4)cc3)c2C)cc(F)c1C(N)=O	7.00	5.54	< 5.30	8.00	inhibition [15]: Active; inhibition [16]: Active; inhibition [17]: Active; inhibition [18]: Active; inhibition [19]: Active; inhibition [20]: Active; inhibition [21]: Active; pIC50 [22]: 4.72; Stability [8]: Stable; Stability [9]: Stable; Papp A→B at 2 h, 5 µM (in vitro [10]): 4.3 ×10⁻⁶ cm/s; Papp B→A at 2 h, 5 µM (in vitro [11]): 14.5 ×10⁻⁶ cm/s
COc1cc(-c2cncc(-c3ccc(N4C[C@@H](C)N(C)[C@@H](C)C4)cc3)c2C)cc(OC)c1C(N)=O	–	7.28	6.55	8.52	–
COc1cc(-c2cncc(-c3ccc(N4CCNCC4)cc3)c2C)cc(OC)c1C(N)=O	6.75	–	–	–	–
Cc1c(-c2ccc(N3CCNCC3)cc2)cncc1-c1ccc(C(N)=O)c(F)c1	5.99	< 5.30	< 5.30	6.58	–
COc1c(-c2cncc(-c3ccc(N4CCNCC4)cc3)c2C)csc1C(N)=O	5.55	< 5.30	< 5.30	6.15	–
Cc1c(-c2ccc(C(N)=O)cc2)cncc1-c1ccc(N2CCNCC2)cc1	5.56	< 5.30	< 5.30	6.32	–
COc1ccc(-c2cncc(-c3ccc(N4CCNCC4)cc3)c2C)cc1C(N)=O	6.16	< 5.30	< 5.30	< 6.00	–
COc1cc(-c2cncc(-c3ccc(N4CCNCC4)cc3)c2C)ccc1C(=O)N(C)C	< 5.30	< 5.30	< 5.30	< 6.00	–
